Patent US9499493B2, “2,4-pyrimidinediamine compounds and their uses” (Rigel Pharmaceuticals, Inc., priority 2002, dated 2016)
Counter-ions that a name gives are not always drawn.

tested on: cultured human mast cells (CHMC); test: CHMC low cell density IgE activation: tryptase assay; type: cell-based; details: anti-IgE
Protocol: Pellet CHMC cells (980 rpm, 10 min) and resuspend in pre-warmed MT. Add 65 ul of cells to each 96-well plate. Depending on the degranulation activity for each particular CHMC donor, load 1000-1500 cells/well. Mix four times followed by a 1 hr incubation at 37° C. […] Stimulate cells by adding 25 ul of 6× anti-IgE solution to the appropriate plates. Add 25 ul MT to un-stimulated control wells. Mix twice following addition of the anti-IgE. Incubate at 37° C. for 30 minutes. […] Spin plates at 1000 rpm for 10 min to pellet cells. Transfer 25 ul of supernatant to a 96-well black bottom plate and add 100 ul of freshly diluted tryptase substrate solution to each well. Incubate plates at room temperature for 30 min.

Compared with `O=[N+]([O-])c1ccc(NCCO)c(Nc2ccnc(Nc3cc([N+](=O)[O-])ccc3NCCO)n2)c1` [R950156, N2,N4-Bis(2-hydroxyethyleneamino-5-nitrophenyl)-2,4-pyrimidinediamine], `CNC(=O)COc1cccc(Nc2ncc(F)c(Nc3ccc(C#N)c(C)c3)n2)c1` [R926851, N4-(4-Cyano-3-methylphenyl)-5-fluoro-N2-[3-(N-methylamino)carbonylmethyleneoxyphenyl]-2,4-pyrimidinediamine] is lower in IC50: greater than 10000 nM for the first, 446 nM for the second. The second is the more potent here.

First: CC(C)Oc1ccc(Nc2ncc(F)c(Nc3ccc4[nH]ncc4c3)n2)cc1 [R935266, 5-Fluoro-N4-(indazoline-5-yl)-N2-(4-isopropoxyphenyl)-2,4-pyrimidinediamine]
Second: CCOC(=O)CCn1ncc2cc(Nc3nc(Nc4ccc(OC(C)C)cc4)ncc3F)ccc21 [R935306, N4-[1-(2-Ethoxycarbonylethyl)indazoline-5-yl]-5-fluoro-N2-(4-isopropoxyphenyl)-2,4-pyrimidinediamine]
The IC50 of the first is 8.6-fold higher: 2970 nM for the first, 345 nM for the second. The second is the more potent here.

Going from `COc1cc(Nc2nc(Nc3cccc(O)c3)ncc2F)c(OC)cc1Cl` [R926860, N4-(4-Chloro-2,5-dimethoxyphenyl)-5-fluoro-N2-(3-hydroxyphenyl)-2,4-primidinediamine] to `COc1ccc(Nc2nc(Nc3cc(C)c(O)c(Cl)c3)ncc2F)cc1CN1CCNCC1` [R940318, N2-(3-Chloro-4-hydroxy-5-methylphenyl)-5-fluoro-N4-[3-(N-piperazinomethylene)-4-methoxyphenyl]-2,4-pyrimidinediamine], the IC50 rises from 1950 nM to 3790 nM (1.9-fold). The first is the more potent here.

Going from `Oc1cccc(Nc2nc(Nc3ccc4oc(CN5CCNCC5)cc4c3)ncc2F)c1` [R926770, 5-Fluoro-N4-(3-hydroxyphenyl)-N2-[2-(N-piperazinomethylene)benzofuran-5-yl]-2,4-pyrimidinediamine] to `O=C(O)COc1cccc(Nc2ncc(F)c(Nc3ccc4c(c3)OCCO4)n2)c1` [R926483, N2-(3-Carboxymethyleneoxyphenyl)-N4-(3,4-ethylenedioxyphenyl)-5-fluoro-2,4-pyrimidinediamine], the IC50 rises from 583 nM to greater than 10000 nM. The first is the more potent here.

Going from `COc1cc(C(=O)NS(=O)(=O)c2ccccc2C)ccc1Cn1ncc2ccc(Nc3ncc(F)c(Nc4ccc(OC(C)C)cc4)n3)cc21` [R935322, 5-Fluoro-N4-(4-isopropoxyphenyl)-N2-[1-[2-methoxy-4-(o-toluylsulfonamidocarboxy)benzyl]indazoline-6-yl]-2,4-pyrimidinediamine] to `CCOC(=O)C(C)(C)Oc1cccc(Nc2ncc(F)c(Nc3ccc(C)c(O)c3)n2)c1` [R926908, N2-[3-(Ethoxycarbonyl-1,1-dimethylmethyleneoxy)phenyl]-5-fluoro-N4-(3-hydroxy-4-methylphenyl)-2,4-pyrimidinediamine], the IC50 falls from 3420 nM to 585 nM (5.8-fold). The second is the more potent here.

`Cc1ccnc(Nc2nc(Cl)ncc2F)c1` [Compound R920401] and `CC1(C)CN(c2cccc[n+]2[O-])c2cc(Nc3nc(Cl)ncc3F)ccc2O1` [Compound R940328] cannot be ordered by IC50: greater than 10000 nM for the first, greater than 10000 nM for the second.

Compared with `Cc1cc(Nc2ncc(F)c(Nc3ccc(O)c(C)c3)n2)ccc1O` [R926469, N2,N4′-Bis(4-hydroxy-3-methylphenyl)-5-fluoro-2,4-pyrimidinediamine], `CNC(=O)COc1cccc(Nc2ncc(F)c(Nc3cnc4c(c3)OCCN4)n2)c1` [R945263, 5-Fluoro-N2-(3-methylaminocarbonylmethyleneoxyphenyl)-N4-[2H-pyrido[3,2-b]-1,4-oxazin-7-yl]-2,4-pyrimidinediamine] is lower in IC50: greater than 10000 nM for the first, 1640 nM for the second. The second is the more potent here.

tested on: cultured human mast cells (CHMC); test: CHMC low cell density ionomycin activation: tryptase assay; type: cell-based; details: not given

`CNC(=O)COc1cccc(Nc2ncc(F)c(Nc3ccc4c(c3)C(N)CCO4)n2)c1` (stereo not shown) [R950368, N4-(4-Amino-3,4-dihydro-2H-1-benzopyran-6-yl)-5-fluoro-N2-[3-(N-methylamino)carbonylmethyleneoxyphenyl]-2,4-pyrimidinediamine] and `CNC(=O)COc1cccc(Nc2ncc(F)c(Nc3ccc4c(c3)OCCO4)n2)c1` [R926816, N4-(3,4-Ethylenedioxyphenyl)-5-fluoro-N2-[3-(N-methylamino)carbonylmethyleneoxyphenyl]-2,4-pyrimidinediamine Hydrogen Chloride Salt] cannot be ordered by IC50: greater than 10000 nM for the first, greater than 10000 nM for the second.
